SMILES strings stand for the structures.

The test system of one data set is MCF-7 cells. Nature of the data set: Annexin V/PI apoptosis assay by flow cytometry, MCF-7. The format is cell-based, human. The following applies: 6af at 2.61 µM, 6cf at 5.71 µM (respective IC50), 48 h. As for the experimental part:
(§1) The extent of apoptosis induced by compounds 6af and 6cf in MCF-7 and 4T1 cells was quantified by flow cytometry according to the manufacturer’s protocol. Briefly, cells were seeded in a 6-well plate at a cell density of 1 × 10^6 cells/well. After 24 h, the media was discarded and cells were treated with fresh media containing compounds 6af and 6cf at their respective IC50 concentrations for 48 h. After treatment, cells were trypsinized, harvested in PBS and collected by centrifugation for 5 min at 2000 rpm. Cells were then resuspended in 1X binding buffer and stained with FITC-labeled Annexin V Alexa Fluor 488 (5 μL) and propidium iodide (10 μL). Cells were analyzed using flow cytometer (Beckman Coulter), and data were analyzed with CytExpert software.

The test system of data set [1] is MCF-7 (human breast adenocarcinoma) cells. Nature of the data set: MTT cytotoxicity assay, MCF-7. The following applies: Homo sapiens, MCF7, 10 µM, 48 h exposure, read-out: % Cell Viability at 10 µM MCF-7. The format is cell-based. How it is done: (§2) The cytotoxicity activity of all the conjugates (6aa–6df) was evaluated in vitro by MTT assay against two different breast cancer cell lines 4T1 (murine) and MCF-7 (human) and HEK 293 (human) as normal cell line. DTX was used as positive control. Cells were grown in DMEM supplemented with 10% FBS and 1% antibiotic solution and incubated at 5% CO2 and 37 °C for 24 h. The stock solutions of all the conjugates were prepared in DMSO and diluted for further use. Briefly, 5 × 10^3 cells/well were seeded in 96-well cell culture plates and allowed to adhere for 24 h. Cell inhibition (%) was determined after 48 h exposure to the compounds at 1–25 μM concentration. After 48 h, MTT assay was performed and the yellow tetrazolium salt (MTT) was reduced in metabolically active cells to form insoluble purple formazan crystals, which were solubilized by the addition of DMSO. The optical density (OD) was recorded at 560 nm and 630 nm as reference wavelength. Percentage cell inhibition was determined by comparison with untreated cells.

A further data set deals with 4T1 cells. Description: Annexin V/PI apoptosis assay by flow cytometry, 4T1. The format is cell-based, mouse. The following applies: 6af at 12.84 µM, 6cf at 8.76 µM (respective IC50), 48 h. As for the experimental part:
as §1
For orientation: In flow cytometry, cells or beads pass a laser one at a time.

The nature of data set [2]: MTT cytotoxicity assay, normal cell line HEK 293. The format is cell-based. The following applies: human, HEK 293 cells, HEK 293 normal cells, 48 h exposure. How it is done:
as §2
On the technique in general: Formazan colour is commonly taken as a measure of viable cells.

The test system of data set [3] is 4T1 (mouse mammary carcinoma) cells. Description: MTT cytotoxicity assay, 4T1. The format is cell-based. The following applies: for IC50: 48 h; for viability at 10 µM: 48 h exposure, read-out: % Cell Viability at 10 µM 4T1. As for the experimental part:
as §2

Data set [4] concerns Human cervix cancer cell line (HeLa). More on the design: method as in PMID 23884119, PMID 25476168, PMID 30220830, PMID 23584541, PMID 28158265. The following applies: literature example of Figure 1, cited from earlier work.

By viability is commonly meant a per cent measure of how many cells are alive, often set against a control. As usually defined, the IC50 is the concentration needed to halve the response being measured. By melting point is commonly meant the temperature, or range, at which the solid turns liquid. `C[C@H](CCC(=O)OCc1cn(CC(=O)c2ccc(Br)cc2)nn1)C1CCC2C3C(C[C@H](O)[C@@]21C)[C@@]1(C)CC[C@@H](O)CC1C[C@H]3O` (stereo partly drawn) [6af, (1-(2-(4-Bromophenyl)-2-oxoethyl)-1H-1,2,3-triazol-4-yl)methyl (4R)-4-((3R,7R,10S,12S,13R)-3,7,12-trihydroxy-10,13-dimethylhexadecahydro-1H-cyclopenta[a]phenanthren-17-yl)pentanoate] returned a melting point of 159 to 160 °C. For the same compound, the “apoptosis (total) in MCF-7 cells” value with MCF-7 cells was determined as 33.89%. Moreover, the viability at 10 µM in data set [1] was determined as 26.5%. Moreover, in the data set on 4T1 cells, the “total apoptosis in 4T1 cells” value came out at 19.02%. In addition, in data set [2], the viability at 48 h, 10 µM was > 86%. The compound further yielded an IC50 in data set [3] of 12.8 ± 1.8 µM. Also, in data set [3] (Mus musculus), the viability at 10 µM came out at 55.9% and the IC50 was < 19 µM.
`C[C@H](CCC(=O)NCc1cn(CC(=O)c2ccc(F)cc2)nn1)C1CCC2C3C(C[C@H](O)[C@@]21C)[C@@]1(C)CC[C@@H](O)CC1C[C@H]3O` (stereo partly drawn) [6cd, (4R)-N-((1-(2-(4-Fluorophenyl)-2-oxoethyl)-1H-1,2,3-triazol-4-yl)methyl)-4-((3R,7R,10S,12S,13R)-3,7,12-trihydroxy-10,13-dimethylhexadecahydro-1H-cyclopenta[a]phenanthren-17-yl)pentanamide] displayed a melting point of 137 to 138 °C. Also, the viability at 10 µM in data set [1] was 88.7%. This compound had a viability at 48 h, 10 µM in data set [2] of 97.5%. Besides, in data set [3] (Mus musculus), the viability at 10 µM is 70.7%.
In turn, `C[C@H](CCC(=O)NCc1cn(CC(=O)c2ccc(Cl)cc2)nn1)C1CCC2C3C(C[C@H](O)[C@@]21C)[C@@]1(C)CC[C@@H](O)CC1C[C@H]3O` (stereo partly drawn) [6ce, (4R)-N-((1-(2-(4-Chlorophenyl)-2-oxoethyl)-1H-1,2,3-triazol-4-yl)methyl)-4-((3R,7R,10S,12S,13R)-3,7,12-trihydroxy-10,13-dimethylhexadecahydro-1H-cyclopenta[a]phenanthren-17-yl)pentanamide] showed a melting point of 154 to 155 °C. The viability at 10 µM in data set [1] worked out at 69.2%. The viability at 48 h, 10 µM in data set [2] is 92.7%. Further, the viability at 10 µM in data set [3] (Mus musculus) stood at 50.6%.
The corresponding values for `C[C@H](CCC(=O)NCc1cn(CC(=O)c2ccccc2)nn1)C1CCC2C3CCC4C[C@H](O)CC[C@]4(C)C3C[C@H](O)[C@@]21C` (stereo partly drawn) [6da, (4R)-4-((3R,10S,12S,13R)-3,12-Dihydroxy-10,13-dimethylhexadecahydro-1H-cyclopenta[a]phenanthren-17-yl)-N-((1-(2-oxo-2-phenylethyl)-1H-1,2,3-triazol-4-yl)methyl)pentanamide] are 135 to 136 °C, 91.2%, 97.9% and 99.6%.
Regarding `Cc1ccc(C(=O)Cn2cc(CNC(=O)CC[C@@H](C)C3CCC4C5CCC6C[C@H](O)CC[C@]6(C)C5C[C@H](O)[C@@]43C)nn2)cc1` (stereo partly drawn) [6db, (4R)-4-((3R,10S,12S,13R)-3,12-Dihydroxy-10,13-dimethylhexadecahydro-1H-cyclopenta[a]phenanthren-17-yl)-N-((1-(2-oxo-2-(p-tolyl)ethyl)-1H-1,2,3-triazol-4-yl)methyl)pentanamide], the melting point is 112 to 115 °C. In data set [1], the viability at 10 µM was determined as 78.7%. In data set [2], this compound came in with a viability at 48 h, 10 µM of 89.4%. In data set [3] (Mus musculus), the viability at 10 µM came out at 53.7%.
As to `COc1ccc(C(=O)Cn2cc(CNC(=O)CC[C@@H](C)C3CCC4C5CCC6C[C@H](O)CC[C@]6(C)C5C[C@H](O)[C@@]43C)nn2)cc1` (stereo partly drawn) [6dc, (4R)-4-((3R,10S,12S,13R)-3,12-Dihydroxy-10,13-dimethylhexadecahydro-1H-cyclopenta[a]phenanthren-17-yl)-N-((1-(2-(4-methoxyphenyl)-2-oxoethyl)-1H-1,2,3-triazol-4-yl)methyl)pentanamide], the melting point was 114 to 115 °C. The viability at 10 µM in data set [1] was found to be 68.5%. This compound also showed a viability at 48 h, 10 µM in data set [2] of 86.5%. Besides, the viability at 10 µM in data set [3] (Mus musculus) was found to be 64.9%.
Turning to `C[C@H](CCC(=O)NCc1cn(CC(=O)c2ccc(F)cc2)nn1)C1CCC2C3CCC4C[C@H](O)CC[C@]4(C)C3C[C@H](O)[C@@]21C` (stereo partly drawn) [6dd, (4R)-4-((3R,10S,12S,13R)-3,12-Dihydroxy-10,13-dimethylhexadecahydro-1H-cyclopenta[a]phenanthren-17-yl)-N-((1-(2-(4-fluorophenyl)-2-oxoethyl)-1H-1,2,3-triazol-4-yl)methyl)pentanamide], the melting point was 126 to 127 °C. Moreover, in data set [1], the viability at 10 µM is 73.8%. Further, the viability at 48 h, 10 µM in data set [2] is 81.6%. Moreover, the viability at 10 µM in data set [3] (Mus musculus) turned out to be 89.9%.
In the case of `C[C@H](CCC(=O)NCc1cn(CC(=O)c2ccc(Cl)cc2)nn1)C1CCC2C3CCC4C[C@H](O)CC[C@]4(C)C3C[C@H](O)[C@@]21C` (stereo partly drawn) [6de, (4R)-N-((1-(2-(4-Chlorophenyl)-2-oxoethyl)-1H-1,2,3-triazol-4-yl)methyl)-4-((3R,10S,12S,13R)-3,12-dihydroxy-10,13-dimethylhexadecahydro-1H-cyclopenta[a]phenanthren-17-yl)pentanamide], the melting point is 100 to 101 °C. In data set [1], the viability at 10 µM came to 86.8%. Besides, the viability at 48 h, 10 µM in data set [2] is 90.5%. The viability at 10 µM in data set [3] (Mus musculus) turned out to be 62.9%.
As to `C[C@H](CCC(=O)NCc1cn(CC(=O)c2ccc(Br)cc2)nn1)C1CCC2C3CCC4C[C@H](O)CC[C@]4(C)C3C[C@H](O)[C@@]21C` (stereo partly drawn) [6df, (4R)-N-((1-(2-(4-Bromophenyl)-2-oxoethyl)-1H-1,2,3-triazol-4-yl)methyl)-4-((3R,10S,12S,13R)-3,12-dihydroxy-10,13-dimethylhexadecahydro-1H-cyclopenta[a]phenanthren-17-yl)pentanamide], the melting point fell in the range of 135 to 136 °C. In addition, in data set [1], the viability at 10 µM worked out at 86.5%. This compound also returned a viability at 48 h, 10 µM in data set [2] of 93.5%. In data set [3] (Mus musculus), the viability at 10 µM turned out to be 48.4%.
With `CC(C)CCCC(C)C1CCC2C3CCC4CC(=O)C(n5cc(-c6ccccn6)nn5)CC4(C)C3CCC12C` (stereo not shown) [III], the “% Growth Inhibition at 30 μM HeLa” value in data set [4] is reported as 43.5%.
In the case of `Cc1cccc(-c2cn(CC3CC4C5CC=C6CC(O)CCC6(C)C5CCC4(C)C3O)nn2)c1` (stereo not shown) [II], in data set [4], the “% Growth Inhibition at 30 μM HeLa” value is on record as 96.9%.
For the compound `COc1ccc2c(c1)CCC1C2CCC2(C)C(O)C(n3cc(-c4ccc(C(C)(C)C)cc4)nn3)CC12` (stereo not shown) [IV], in data set [4], the IC50 was 5.08 µM.

Source of the values: publication PMC8510344, “Bile-Acid-Appended Triazolyl Aryl Ketones: Design, Synthesis, In Vitro Anticancer Activity and Pharmacokinetics in Rats” (Molecules, 2021).
